Laboratory results reported in patent US20100267825A1, “TREATMENT OF SKIN DAMAGE” (Eukarion, Inc., priority 2009, published 2010).

Experiments:
[1] = In vitro catalase activity (colorimetric peroxidase/ABTS-coupled assay); assay type: biochemical; conditions: relative to C7 (EUK-8) set at 100%, 10 μM compound, 100 μM hydrogen peroxide
Method: The catalase activity of SOD/Catalase mimetics used in the process was determined as previously described by Doctrow et al., 2002, J. Med. Chem. 45, 4549-4558. Briefly, catalase activity was measured by incubating the sample compound with hydrogen peroxide and determining the amount of hydrogen peroxide remaining after a period of time using a colorimetric peroxidase-coupled assay method. 10 μM sample compound and 100 μM hydrogen peroxide in 40 mM sodium phosphate pH 7.4 were incubated together at ambient temperature in a multi-well plate. After the desired reaction period had elapsed, 20 μl of peroxidase/ABTS reagent was added (peroxidase/ABTS reagent contained […] of 50 mM Na phosphate, pH 7.4, 1 mg horseradish peroxidase (1310 U/mg) and 1.6 g ABTS). After five minutes, absorbance at 750 nm was determined.
The amount of hydrogen peroxide remaining was calculated based on a standard curve. To compare rates of catalase reaction, the amount of hydrogen peroxide consumed at 20 minutes was determined.
(rate obtained for SOD/Catalase mimetic)/(rate obtained for C7 (EUK-8))×100%

[2] = tested on: radiation-induced apoptosis; assay: Protection against radiation-induced apoptosis / anti-apoptotic activity; assay type: cell-based
Cytotoxicity = assay type: cell-based
[3] = salen-metal complexes, pH 7.4, hydrogen peroxide consumed at 20 minutes
[4] = orally bioavailable metalloporphyrin derivatives, pH 7.4, 20 minutes

Compound	Relative Catalase Rate [1, 3]	further results
[Cl-].[Mn+3].[O-]c1ccccc1C=NCCN=Cc1ccccc1[O-] [C7 (EUK-8)]	100%	–
CC(=O)[O-].[Mn+3].[O-]c1ccccc1C=NCCN=Cc1ccccc1[O-] [C31]	92%	–
CC(=O)[O-].COc1cccc(C=NCCN=Cc2cccc(OC)c2[O-])c1[O-].[Mn+3] [C32]	188%	–
CC(=O)[O-].COc1ccc(C=NCCN=Cc2ccc(OC)cc2[O-])c([O-])c1.[Mn+3] [C33]	38%	–
COc1ccc(C=NCCN=Cc2ccc(OC)cc2[O-])c([O-])c1.[Cl-].[Mn+3] [C34]	46%	–
CC(=O)[O-].COc1cc([O-])c(C=NCCN=Cc2c([O-])cc(OC)cc2OC)c(OC)c1.[Mn+3] [C35]	25%	–
CC(=O)[O-].[Mn+3].[O-]c1c(F)cccc1C=NCCN=Cc1cccc(F)c1[O-] [C36]	128%	–
[Cl-].[Mn+3].[O-]c1c(F)cccc1C=NCCN=Cc1cccc(F)c1[O-] [C37]	117%	–
COc1cccc(C=NCCN=Cc2cccc(OC)c2[O-])c1[O-].[Cl-].[Mn+3] [C40 (EUK-134)]	155%	–
CC(=O)[O-].COc1cc(Br)c([O-])c(C=Nc2ccccc2N=Cc2cc(OC)cc(Br)c2[O-])c1.[Mn+3] [C76]	427%	–
COc1cccc(C=Nc2ccccc2N=Cc2cccc(OC)c2[O-])c1[O-].[Cl-].[Mn+3] [C81]	493%	–
CC(=O)[O-].[Mn+3].[O-]c1c2cccc1OCCOCCOCCOc1cccc(c1[O-])C=Nc1ccccc1N=C2 [C82]	345%	–
CC(=O)[O-].[Mn+3].[O-]c1ccccc1CNCCNCc1ccccc1[O-] [C83]	42%	–
[Cl-].[Mn+3].[O-]c1ccccc1CNCCNCc1ccccc1[O-] [C84]	31%	–
CC(=NCCN=C(C)c1ccccc1[O-])c1ccccc1[O-].CC(=O)[O-].[Mn+3] [C85]	31%	–
C1=Cc2nc1cc1ccc([n-]1)c(C1CC1)c1nc(cc3ccc([n-]3)c2C2CC2)C=C1.CC(=O)[O-].[Mn+3] [EUK-418, {[{(Porphine-5,15-diyl)bis[cyclopropyl-diyl]}] (2-)-N^21, N^22, N^23, N^24} manganese(III) acetate]	–	Relative Catalase Rate [1, 4]: 70%; protective effect against radiation-induced apoptosis (in words) [2]: protective effect against radiation-induced apoptosis
C1=Cc2nc1cc1ccc([n-]1)c(Cc1ccccc1)c1nc(cc3ccc([n-]3)c2Cc2ccccc2)C=C1.CC(=O)[O-].[Mn+3] [EUK-423, {[{(Porphine-5,15-diyl)bis[benzyl-diyl]}] (2-)-N^21, N^22, N^23, N^24} manganese(III) acetate]	–	Relative Catalase Rate [1, 4]: 56%; protective effect against radiation-induced apoptosis (in words) [2]: protective effect against radiation-induced apoptosis
CC(=O)[O-].CCc1c2nc(c(CC)c3ccc([n-]3)c(CC)c3nc(c(CC)c4ccc1[n-]4)C=C3)C=C2.[Mn+3] [EUK-425, (5,10,15,20-Tetraethylporphyrinato) manganese (III) acetate]	–	Relative Catalase Rate [1, 4]: 84%
CC(=O)[O-].COc1ccc(-c2c3nc(cc4ccc([n-]4)c(-c4ccc(OC)cc4)c4nc(cc5ccc2[n-]5)C=C4)C=C3)cc1.[Mn+3] [EUK-450, {[{(Porphine-5,15-diyl)bis[benzene-1,4 diyl (4-methyl-oxy)]}](2-)-N^21, N^22, N^23, N^24} manganese(III) acetate]	–	Relative Catalase Rate [1, 4]: 84%; protective effect against radiation-induced apoptosis (in words) [2]: protective effect against radiation-induced apoptosis
C1=Cc2nc1cc1ccc([n-]1)c(C1CCOCC1)c1nc(cc3ccc([n-]3)c2C2CCOCC2)C=C1.[Cl-].[Mn+3] [EUK-451, {[{(Porphine-5,15-diyl)bis[4-Tetrahydropyrano-diyl]}](2-)-N^21, N^22, N^23, N^24} manganese(III) chloride]	–	Relative Catalase Rate [1, 4]: 140%; cytotoxicity (in words) (Cytotoxicity): low; anti-apoptotic activity (in words) [2]: high; protective effect against radiation-induced apoptosis (in words) [2]: protective effect against radiation-induced apoptosis
C1=Cc2nc1cc1ccc([n-]1)c(C1CCCCC1)c1nc(cc3ccc([n-]3)c2C2CCCCC2)C=C1.[Cl-].[Mn+3] [EUK-452, {[{(Porphine-5,15-diyl)bis[cyclohexyl-diyl]}] (2-)-N^21, N^22, N^23, N^24} manganese(III) chloride]	–	Relative Catalase Rate [1, 4]: 105%; protective effect against radiation-induced apoptosis (in words) [2]: protective effect against radiation-induced apoptosis
